Assay results taken from patent US20100004469A1, “ANTIMICROBIAL AGENTS AND MICROBICIDAL AGENTS” (KABUSHIKI KAISHA TOYOTA JIDOSHOKKI, priority 2006, published 2010).

Assays:
Type in all cases: cell-based
[1] = test system: Salmonella Enteritidis (NBRC 3313); assay: Test for antimicrobial activity, viable cell count (Example 1); conditions: room temperature
Description: (§1) After said strains were cultured in SCD agar medium at 35±2° C. for 18 to 24 hours, inocula were prepared by suspending the cultured stains in sterile purified water and adjusting the turbidity so as to correspond with No. 1 MacFarland. Using agar plates, the concentrations of the inocula were measured according to the agar plate mixed dilution method (Table 1). 3 mL of each of the 10%, 1.0% and 0.1% aqueous solutions of the test compound, and of sterile purified water (control) were prepared (n=1). 0.03 mL of said inocula was inoculated into each of the test solutions at room temperature. Immediately after, 15 minutes after, and 180 minutes after the inoculations, 0.5 mL of each of the test solutions was added to 49.5 mL of a sterile phosphate buffer (Pro-media MV2-1000, manufactured by ELMEX), and mixed. A ten fold dilution series of each of the mixtures was constructed. Then, the number of the viable cells therein were measured, and then it was converted to the number of viable cells per 1 mL of the test solutions or control. The number of viable cell was measured according to “Viable cell count; the agar plate mixed dilution method in the Japanese Pharmacopoeia, 14th revised edition”.

[2] = test system: Escherichia coli (NBRC 3972); assay: as above; conditions: room temperature
Description: as §1

[3] = test system: Staphylococcus aureus subsp. aureus (NBRC 13276); assay: as above; conditions: room temperature
Description: as §1

[4] = test system: Salmonella Enteritidis (NBRC 3313); assay: Test for antimicrobial activity with neutralization, viable cell count (Example 2); conditions: 20% aqueous solution, neutralized
Description: (§2) After said strains were cultured in SCD agar medium at 35±2° C. for 18 to 24 hours, inocula were prepared by suspending the stains in sterile purified water and adjusting the turbidity so as to correspond with No. 1 MacFarland. Using agar plate, the concentrations of the inocula were measured according to the agar plate mixed dilution method (Table 3). 3 mL of each of 20% aqueous solution of the test compound, a stock solution of a comparative compound and sterile water, (control) was prepared (n=1). 0.03 mL of said inocula was inoculated into each of the test solutions at a room temperature. Immediately after, 15 minutes after and 180 minutes after the inoculations, neutralization was performed under the following conditions. 0.5 mL of the test solution was added to 4.5 mL of sterile sodium hydrate solution at the concentration of 0.25 mol/L (sodium hydrate; manufactured by Wako Pure Chemical Industries, Ltd.), and mixed. Then, 45 mL of a sterile phosphate buffer (Pro-media MV2-1000, manufactured by ELMEX) was immediately added and mixed. 0.5 mL of the test solution was added to 4.5 mL of sterile sodium hydrate solution at the concentration of 2.0 mol/L, and mixed. Then, 45 mL of a sterile phosphate buffer was immediately added and mixed. A ten-fold dilution series of each of the neutralization solution was prepared. Then, the number of the viable cells therein was measured and it was converted to the number of viable cells per 1 mL of the test solutions or control. The number of viable cell was measured according to “Viable cell count; the agar plate mixed dilution method in the Japanese Pharmacopoeia, 14th revised edition”.

[5] = test system: Escherichia coli (NBRC 3972); assay: as above; conditions: 20% aqueous solution, neutralized
Description: as §2

[6] = test system: Staphylococcus aureus subsp. aureus (NBRC 13276); assay: as above; conditions: 20% aqueous solution, neutralized
Description: as §2

`O=C(O)c1cc(C(=O)O)oc(=O)c1` [test compound, 2H-pyran-2-on-4,6-dicarbonic acid] was tested, and the “number of viable cells, Measured 15 min. after inoculation” value ([1]; 0.1% aqueous solution) was <100 cfu/mL, the “number of viable cells, Measured 180 min. after inoculation” value ([1]; 0.1% aqueous solution) was <100 cfu/mL and the “number of viable cells, Measured immediately after inoculation” value ([1]; 0.1% aqueous solution) was 12,000 cfu/mL. For the same molecule, the “number of viable cells, Measured 15 min. after inoculation” value ([1]; 1.0% aqueous solution) was <100 cfu/mL, the “number of viable cells, Measured 180 min. after inoculation” value ([1]; 1.0% aqueous solution) was <100 cfu/mL and the “number of viable cells, Measured immediately after inoculation” value ([1]; 1.0% aqueous solution) was <100 cfu/mL. For the same molecule, the “number of viable cells, Measured 15 min. after inoculation” value ([1]; 10% aqueous solution) was <100 cfu/mL, the “number of viable cells, Measured 180 min. after inoculation” value ([1]; 10% aqueous solution) was <100 cfu/mL and the “number of viable cells, Measured immediately after inoculation” value ([1]; 10% aqueous solution) was <100 cfu/mL. For the same molecule, the “number of viable cells, Measured 15 min. after inoculation” value ([2]; 0.1% aqueous solution) was <100 cfu/mL, the “number of viable cells, Measured 180 min. after inoculation” value ([2]; 0.1% aqueous solution) was <100 cfu/mL and the “number of viable cells, Measured immediately after inoculation” value ([2]; 0.1% aqueous solution) was 10,000 cfu/mL. For the same molecule, the “number of viable cells, Measured 15 min. after inoculation” value ([2]; 1.0% aqueous solution) was <100 cfu/mL, the “number of viable cells, Measured 180 min. after inoculation” value ([2]; 1.0% aqueous solution) was <100 cfu/mL and the “number of viable cells, Measured immediately after inoculation” value ([2]; 1.0% aqueous solution) was <100 cfu/mL. For the same molecule, the “number of viable cells, Measured 15 min. after inoculation” value ([2]; 10% aqueous solution) was <100 cfu/mL, the “number of viable cells, Measured 180 min. after inoculation” value ([2]; 10% aqueous solution) was <100 cfu/mL and the “number of viable cells, Measured immediately after inoculation” value ([2]; 10% aqueous solution) was <100 cfu/mL. For the same molecule, the “number of viable cells, Measured 15 min. after inoculation” value ([3]; 0.1% aqueous solution) was <100 cfu/mL, the “number of viable cells, Measured 180 min. after inoculation” value ([3]; 0.1% aqueous solution) was <100 cfu/mL and the “number of viable cells, Measured immediately after inoculation” value ([3]; 0.1% aqueous solution) was 11,000 cfu/mL. For the same molecule, the “number of viable cells, Measured 15 min. after inoculation” value ([3]; 1.0% aqueous solution) was <100 cfu/mL, the “number of viable cells, Measured 180 min. after inoculation” value ([3]; 1.0% aqueous solution) was <100 cfu/mL and the “number of viable cells, Measured immediately after inoculation” value ([3]; 1.0% aqueous solution) was 5,000 cfu/mL. The “number of viable cells, Measured 15 min. after inoculation” value ([3]; 10% aqueous solution) was <100 cfu/mL, the “number of viable cells, Measured 180 min. after inoculation” value ([3]; 10% aqueous solution) was <100 cfu/mL and the “number of viable cells, Measured immediately after inoculation” value ([3]; 10% aqueous solution) was <100 cfu/mL. For the same molecule, the “number of viable cells, Measured 15 min. after inoculation” value ([4]; 15 min. after inoculation) was <100 cfu/mL, the “number of viable cells, Measured 180 min. after inoculation” value ([4]; 180 min. after inoculation) was <100 cfu/mL and the “number of viable cells, Measured immediately after inoculation” value ([4]; immediately after inoculation) was <100 cfu/mL. The “number of viable cells, Measured 15 min. after inoculation” value ([5]; 15 min. after inoculation) was <100 cfu/mL, the “number of viable cells, Measured 180 min. after inoculation” value ([5]; 180 min. after inoculation) was <100 cfu/mL and the “number of viable cells, Measured immediately after inoculation” value ([5]; immediately after inoculation) was <100 cfu/mL. For the same molecule, the “number of viable cells, Measured 15 min. after inoculation” value ([6]; 15 min. after inoculation) was <100 cfu/mL, the “number of viable cells, Measured 180 min. after inoculation” value ([6]; 180 min. after inoculation) was <100 cfu/mL and the “number of viable cells, Measured immediately after inoculation” value ([6]; immediately after inoculation) was <100 cfu/mL.
